Results as given in US20250206708A1, “AN OXAZIRIDINE PLATFORM FOR TARGETING FUNCTIONAL ALLOSTERIC METHIONINE SITES” (Novartis AG, priority 2022, published 2025).

Legend:
[1] = tested on: MCF-7 cells; assay: Cell Counting Kit-8 cell viability assay in MCF-7; assay type: cell-based; conditions: Homo sapiens, MCF7; 24 h, CCK-8; read-out: EC50, decrease in cell viability of MCF-7 cells
Method: All cells were maintained as a monolayer in exponential growth at 37° C. in a 5% CO2 atmosphere. MCF-7 and HepG2 were maintained in Dulbecco's Modified Eagle Medium (DMEM, Gibco) supplemented with 10% (v/v) fetal bovine serum (FBS, Seradigm). HT-29 and SW-48 were maintained in RPMI 1640 Medium (Gibco) supplemented with 10% FBS.
All cells dosed with oxaziridine were treated using a 2% DMSO/media solution. Oxaziridines were dissolved in DMSO and used the same day as treatment. Media was removed from cells and replaced with fresh media containing oxaziridine in DMSO for a final concentration of 2% DMSO. Control wells were treated with 2% DMSO/media. Cells were incubated at 37° C. in a 5% CO2 atmosphere.
Commercially available Cell Counting Kit-8 Assay (Dojindo) was used to investigate cell viability after treatment with oxaziridines. Cells were plated in 96-well plates (black/clear bottom; Thermo Fisher) and grown to 75% confluency. Media was removed and replaced with media containing 2% DMSO and indicated compound concentration. Cells were allowed to incubate 24 h. To assess viability, media was removed and replaced with 100 μL media containing 10% CCK-8 assay solution. Plates were incubated at 37° C. in a 5% CO2 atmosphere for 1-4 h until an orange color was visible. Viability was quantified via plate reader (monofilter) with absorption at 450 nm.

[2] = target: CDK4 (Homo sapiens, UniProt P11802); assay: Shotgun proteomics (MS/MS) site of modification on CDK4; assay type: binding; conditions: 50 μM oxaziridine, 30 min, 23° C.
Method: To more accurately assess residue reactivity of oxaziridines on CDK4, 10 μg of CDK4 was diluted with 90 μg whole cell extract derived from mouse liver to a total volume of 100 μL in PBS. Protein mixture was treated with 50 μM oxaziridine (DMSO) and allowed to incubate at 23° C. for 30 min. Labeled protein was precipitated via addition of 900 μL MeOH at −80° C. overnight. The next day, sample was spun at max speed at 4° C. for 10 min. The pellet was gently washed 3 times with a solution of ice cold MeOH. The supernatant was then removed, and the pellet resuspended in 30 μL freshly prepared 8 M urea/PBS. A 5× stock of ProteaseMAX (Promega; cat no. V2071) was prepared by dissolved the pellet in 100 μL ammonium bicarbonate. To the protein mixture was added 30 μL 1×ProteaseMAX, 40 μL ammonium bicarbonate, and 10 μL of 110 mM freshly prepared TCEP (Pierce; cat no. 20490). […]
Peptides from all experiments were analyzed on a Q Exactive Plus mass spectrometer (Thermo Fisher Scientific); pure proteins were analyzed on a C18 only column, while complex proteomes were analyzed via a five step Multidimensional Protein Identification Technology (MudPIT).^7 In both cases, Inlines (IDEX; cat no.M-520) were fitted with ˜20 cm of 250 μm tubing and prepacked with 4 cm of Aqua C18 reverse-phase resin (Phenomenex; cat no. 04A-4299). […]
Data were analyzed with Byologic (Protein Metrics Inc.). […]

[3] = target: CDK1 (Homo sapiens, UniProt P06493); assay: Gel-based ABPP, isoform specificity on CDK1; assay type: binding; conditions: dose-dependent treatment
Method: Activity-based protein profiling (ABPP) was performed as follows. CDK4 was diluted in PBS to 50 nM, then 50 μL was added to each well of a 96-well PCR plate. Ligands were dissolved fresh in DMSO to 5 μM, and 1 μL was added so each well contained a unique ligand at the indicated concentration. Wells were mixed and allowed to incubate 1 h at 23° C. Ligands were then chased with fresh Compound 301 with 1 μL of 5 μM added to each well (100 nM final), wells mixed and allowed to incubate 1 h at 23° C. Excess oxaziridine was quenched with N-acetyl methionine via addition of 1 μL of 10 mM DMSO stock (200 μM final), wells mixed and allowed to incubate 1 h at 23° C. A stock was prepared 1:5 of 12.5 μM DBCO-Cy3 in DMSO: 1.2% SDS/PBS. To each well was added 6 μL of this stock, the wells mixed and allowed to incubate overnight protected from light at 23° C. The next morning 30 μL of 4×Laemmli's buffer containing 10% BME was added to each well. The plate was sealed and brought to 95° C. for 6 min. Samples were loaded and separated on precast 4-20% TGX gels and scanned by ChemiDoc MP for measuring in-gel fluorescence. After that, the total protein level on the gel was assayed by silver staining according to the manufacturer's protocol and scanned by ChemiDoc MP.
The isoform specificity was tested with two closely-related congeners, CDK1 and CDK6.

CDK1, sequence (P06493 whole entry, canonical isoform): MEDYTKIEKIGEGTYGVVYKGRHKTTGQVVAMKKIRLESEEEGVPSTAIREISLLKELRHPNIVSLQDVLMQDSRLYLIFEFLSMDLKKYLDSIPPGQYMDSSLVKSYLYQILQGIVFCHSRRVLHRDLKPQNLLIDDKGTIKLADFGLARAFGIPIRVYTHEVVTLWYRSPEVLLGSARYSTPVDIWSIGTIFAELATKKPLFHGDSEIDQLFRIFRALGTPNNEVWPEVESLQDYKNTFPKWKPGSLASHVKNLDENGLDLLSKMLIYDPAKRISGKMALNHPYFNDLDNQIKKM
CDK4, sequence (P11802 whole entry): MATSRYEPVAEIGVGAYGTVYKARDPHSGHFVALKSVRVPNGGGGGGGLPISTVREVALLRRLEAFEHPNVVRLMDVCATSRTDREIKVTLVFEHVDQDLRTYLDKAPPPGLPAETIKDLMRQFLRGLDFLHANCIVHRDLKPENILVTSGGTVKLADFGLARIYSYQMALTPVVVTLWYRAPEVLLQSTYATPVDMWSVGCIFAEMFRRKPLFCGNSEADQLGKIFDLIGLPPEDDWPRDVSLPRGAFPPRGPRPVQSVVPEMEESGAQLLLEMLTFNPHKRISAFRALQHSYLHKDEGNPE
CDK4, sequence (P24385 whole entry partner): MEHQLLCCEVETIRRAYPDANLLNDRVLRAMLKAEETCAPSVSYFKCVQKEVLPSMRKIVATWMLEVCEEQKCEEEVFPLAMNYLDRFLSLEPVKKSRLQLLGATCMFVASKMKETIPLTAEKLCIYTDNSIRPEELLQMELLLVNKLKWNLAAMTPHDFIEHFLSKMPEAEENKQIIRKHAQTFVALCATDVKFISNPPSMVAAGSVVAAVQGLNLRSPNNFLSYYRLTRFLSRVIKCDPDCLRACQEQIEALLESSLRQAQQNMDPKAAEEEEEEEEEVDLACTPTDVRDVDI

EC50 [1]: 330 µM | site(s) of modification on CDK4 [2]: M169, with minor labeling at M264 | labeling against CDK1 by gel analysis [3]: no dose-dependent labeling
SMILES: O=C(N1CC2COCC2C1)N1OC1c1ccccc1 (stereo not drawn) [Compound 148]
